Data reported in paper PMC8203801 (Communications Biology, 2021).

Biological target: HSA (Homo sapiens, UniProt P02768)
Assay: Dansylsarcosine (DS) binding to prepared HSA, fluorescence titration
Conditions: range over samples
Description: Prepared HSA was diluted with phosphate-buffered saline (PBS) to a final concentration of 10 µmol/L, and 100 µL of this dilution was applied to a flat-bottomed, half area, polystyrene, black 96-well plate (Greiner Bio-One, Kremsmuenster, Austria). […] The resulting fluorescence was measured using FLUOstar OPTIMA microplate reader (BMG LABTECH, Ortenberg, Germany). Fluorescence excitation and emission detection were performed at 355 nm and 460 nm, respectively. Binding curves were fitted applying non-linear regression using GraphPad Prism Software (Version 5; GraphPad Software, San Diego, CA, USA) after subtraction of non-specific binding. Dissociation constants (Kd) were calculated at DS concentrations, where half-maximal fluorescence was reached.

Chain of HSA (P02768 25-609): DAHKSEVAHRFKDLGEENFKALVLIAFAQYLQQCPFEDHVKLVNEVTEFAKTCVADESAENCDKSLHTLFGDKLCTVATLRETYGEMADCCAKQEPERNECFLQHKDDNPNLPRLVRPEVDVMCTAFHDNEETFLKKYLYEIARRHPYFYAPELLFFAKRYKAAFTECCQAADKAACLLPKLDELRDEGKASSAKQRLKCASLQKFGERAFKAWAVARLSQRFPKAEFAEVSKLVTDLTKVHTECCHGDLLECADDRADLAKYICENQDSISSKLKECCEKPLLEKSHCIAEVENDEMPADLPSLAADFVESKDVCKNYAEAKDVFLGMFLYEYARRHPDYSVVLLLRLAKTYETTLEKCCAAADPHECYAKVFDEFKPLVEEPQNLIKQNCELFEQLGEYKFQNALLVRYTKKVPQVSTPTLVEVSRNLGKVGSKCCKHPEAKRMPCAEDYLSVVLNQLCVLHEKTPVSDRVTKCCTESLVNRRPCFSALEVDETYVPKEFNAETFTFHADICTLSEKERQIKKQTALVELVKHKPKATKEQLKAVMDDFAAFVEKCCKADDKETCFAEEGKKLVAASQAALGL

CN(C)c1cccc2c(S(=O)(=O)N(C)CC(=O)O)cccc12 [dansylsarcosine] gave a Kd (binding of dansylsarcosine to HSA of healthy donors) of 12 to 18 µM and a Kd (binding of dansylsarcosine to patients' HSA (chronic liver failure)) of 13 to 28 µM.
